How the values were obtained:
Assay type in all cases: biochemical
Settings in all cases: 10 μM ATP, 60 min, ADP-GLO luminescence
c-MET = c-MET (Homo sapiens, UniProt P08581); experiment: Enzymatic assay (ADP-Glo kinase reaction), c-MET
Experimental: (§1) All the kinase reactions were performed in 5 μL using tyrosine kinase buffer with 0.2 μg/μL poly (Glu4, Tyr1) substrate, 10 μM ATP, serial dilution of the inhibitor, and incubated at room temperature for 60 min. After the indicated incubation times, 5 μL ADP-GLO™ reagent (Promega, Madison, WI) was added to the reactions and the plate was incubated at room temperature for 40 min. […] All 384-well assay plates were read using a GLOMAX™ Discover Microplate Luminometer from Promega (Madison, WI). To plot, analyze the data and calculate all kinase reaction biochemical values, both Microsoft Excel and Prism from GraphPad 7 Software (La Jolla, CA) were used.

AXL = target: T1, AXL (Homo sapiens, UniProt P30530); experiment: Enzymatic assay (ADP-Glo kinase reaction), AXL
T1 sequence (P30530 26-894): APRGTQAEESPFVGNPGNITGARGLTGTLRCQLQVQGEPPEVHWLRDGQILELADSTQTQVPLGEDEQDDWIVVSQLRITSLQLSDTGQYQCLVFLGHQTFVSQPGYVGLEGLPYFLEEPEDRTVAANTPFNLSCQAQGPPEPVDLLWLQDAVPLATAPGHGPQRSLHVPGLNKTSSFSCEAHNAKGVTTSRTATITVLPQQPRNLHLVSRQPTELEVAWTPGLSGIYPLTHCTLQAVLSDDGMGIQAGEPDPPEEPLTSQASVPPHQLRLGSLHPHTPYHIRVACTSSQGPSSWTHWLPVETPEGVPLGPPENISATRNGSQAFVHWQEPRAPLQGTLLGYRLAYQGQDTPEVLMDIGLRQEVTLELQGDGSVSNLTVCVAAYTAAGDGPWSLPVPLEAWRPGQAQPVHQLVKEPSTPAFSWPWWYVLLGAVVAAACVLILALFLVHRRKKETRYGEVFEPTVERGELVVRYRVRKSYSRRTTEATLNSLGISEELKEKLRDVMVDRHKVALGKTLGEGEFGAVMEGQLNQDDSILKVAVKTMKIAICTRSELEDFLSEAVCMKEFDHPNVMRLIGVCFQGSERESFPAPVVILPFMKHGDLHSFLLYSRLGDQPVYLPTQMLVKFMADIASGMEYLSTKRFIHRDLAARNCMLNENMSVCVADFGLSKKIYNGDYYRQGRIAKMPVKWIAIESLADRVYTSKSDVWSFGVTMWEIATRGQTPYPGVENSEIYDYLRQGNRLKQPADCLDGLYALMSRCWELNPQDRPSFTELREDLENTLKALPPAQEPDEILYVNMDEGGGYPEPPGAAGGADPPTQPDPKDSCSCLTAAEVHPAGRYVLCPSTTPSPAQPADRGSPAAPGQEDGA
Experimental: as §1

MER = target: T2, MER (Homo sapiens, UniProt Q12866); experiment: Enzymatic assay (ADP-Glo kinase reaction), MER
T2 sequence (Q12866 21-999): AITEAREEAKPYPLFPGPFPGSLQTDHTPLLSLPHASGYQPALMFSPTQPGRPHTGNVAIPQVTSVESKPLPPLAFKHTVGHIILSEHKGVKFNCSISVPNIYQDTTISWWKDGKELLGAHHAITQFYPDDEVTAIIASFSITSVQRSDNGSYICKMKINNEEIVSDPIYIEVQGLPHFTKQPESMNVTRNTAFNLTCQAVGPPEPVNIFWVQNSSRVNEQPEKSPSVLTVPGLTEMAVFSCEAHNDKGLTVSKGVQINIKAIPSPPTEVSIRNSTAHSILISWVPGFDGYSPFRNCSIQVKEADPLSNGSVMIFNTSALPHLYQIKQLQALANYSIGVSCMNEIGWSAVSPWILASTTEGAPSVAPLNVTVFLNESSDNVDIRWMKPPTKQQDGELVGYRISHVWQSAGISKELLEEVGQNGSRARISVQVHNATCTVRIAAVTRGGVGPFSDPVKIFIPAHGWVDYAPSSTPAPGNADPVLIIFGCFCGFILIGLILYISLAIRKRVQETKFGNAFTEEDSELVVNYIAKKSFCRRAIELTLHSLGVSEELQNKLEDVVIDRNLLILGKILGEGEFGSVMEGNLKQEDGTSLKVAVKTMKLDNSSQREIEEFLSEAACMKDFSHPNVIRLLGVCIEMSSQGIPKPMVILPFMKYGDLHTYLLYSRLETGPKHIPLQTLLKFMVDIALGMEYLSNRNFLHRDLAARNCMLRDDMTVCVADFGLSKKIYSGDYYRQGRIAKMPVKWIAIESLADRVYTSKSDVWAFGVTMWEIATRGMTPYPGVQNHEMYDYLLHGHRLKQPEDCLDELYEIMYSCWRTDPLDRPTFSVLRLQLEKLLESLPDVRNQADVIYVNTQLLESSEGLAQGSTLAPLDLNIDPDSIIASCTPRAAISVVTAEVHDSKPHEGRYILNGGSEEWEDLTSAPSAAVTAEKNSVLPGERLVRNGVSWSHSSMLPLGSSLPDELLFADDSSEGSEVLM
Experimental: (§2) All the kinase reactions were performed in 5 μL using tyrosine kinase buffer with 0.2 μg/μL poly (Glu4, Tyr1) substrate, 10 μM ATP, serial dilution of the inhibitor, and incubated at room temperature for 60 min. After the indicated incubation times, 5 μL ADP-GLO™ reagent (Promega, Madison, WI) was added to the reactions and the plate was incubated at room temperature for 40 min. Then, 10 μL of kinase detection reagent was added and after an incubation time of 40 min, luminescence was recorded and IC50 values were determined (Table 1). All 384-well assay plates were read using a GLOMAX™ Discover Microplate Luminometer from Promega (Madison, WI). To plot, analyze the data and calculate all kinase reaction biochemical values, both Microsoft Excel and Prism from GraphPad 7 Software (La Jolla, CA) were used.
as §2, with “3).” for “1).”

Chain of c-MET (P08581 25-1390): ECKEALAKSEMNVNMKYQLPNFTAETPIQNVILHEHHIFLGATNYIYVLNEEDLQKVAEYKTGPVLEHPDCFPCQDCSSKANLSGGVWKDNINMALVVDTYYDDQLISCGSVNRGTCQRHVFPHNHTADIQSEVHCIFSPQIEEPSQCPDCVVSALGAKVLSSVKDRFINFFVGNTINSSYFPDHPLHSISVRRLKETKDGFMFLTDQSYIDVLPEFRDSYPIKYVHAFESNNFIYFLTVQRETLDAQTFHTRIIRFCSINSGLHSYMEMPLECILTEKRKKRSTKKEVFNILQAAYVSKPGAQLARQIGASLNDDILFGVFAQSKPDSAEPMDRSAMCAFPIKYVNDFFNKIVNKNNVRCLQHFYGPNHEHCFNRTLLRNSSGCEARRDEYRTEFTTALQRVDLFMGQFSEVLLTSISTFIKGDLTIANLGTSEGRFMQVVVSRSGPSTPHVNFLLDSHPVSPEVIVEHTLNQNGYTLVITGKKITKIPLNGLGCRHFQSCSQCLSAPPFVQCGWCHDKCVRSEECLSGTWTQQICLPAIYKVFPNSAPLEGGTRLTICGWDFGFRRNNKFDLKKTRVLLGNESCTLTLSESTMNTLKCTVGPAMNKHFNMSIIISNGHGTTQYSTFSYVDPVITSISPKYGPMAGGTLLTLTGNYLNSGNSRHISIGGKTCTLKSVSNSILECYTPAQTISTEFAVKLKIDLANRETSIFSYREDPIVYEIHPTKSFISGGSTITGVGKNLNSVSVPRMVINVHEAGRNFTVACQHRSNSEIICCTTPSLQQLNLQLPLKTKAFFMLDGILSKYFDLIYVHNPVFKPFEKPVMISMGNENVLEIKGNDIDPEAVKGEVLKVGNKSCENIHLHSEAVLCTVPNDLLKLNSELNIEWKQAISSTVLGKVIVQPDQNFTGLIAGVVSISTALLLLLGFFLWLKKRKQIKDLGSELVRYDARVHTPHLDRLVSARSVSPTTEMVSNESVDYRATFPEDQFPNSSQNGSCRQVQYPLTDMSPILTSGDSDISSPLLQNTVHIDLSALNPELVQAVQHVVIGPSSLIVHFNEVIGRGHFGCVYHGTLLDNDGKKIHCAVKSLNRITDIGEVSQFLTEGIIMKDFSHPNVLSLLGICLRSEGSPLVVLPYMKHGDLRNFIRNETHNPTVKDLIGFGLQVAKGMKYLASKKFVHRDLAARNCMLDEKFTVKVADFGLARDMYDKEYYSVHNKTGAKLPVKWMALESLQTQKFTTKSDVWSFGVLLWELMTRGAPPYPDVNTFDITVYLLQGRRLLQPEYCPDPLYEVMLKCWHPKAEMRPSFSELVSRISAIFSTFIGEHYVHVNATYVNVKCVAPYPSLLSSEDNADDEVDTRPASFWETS

| SMILES | IC50 (c-MET) [nM] | IC50 (AXL) [nM] | IC50 (MER) [nM] |
| --- | --- | --- | --- |
| CN(C)C(=O)Cn1cc(C(=O)Nc2ccc(Oc3ccnc(N)c3C#CCC3CCNCC3)c(F)c2)c(=O)n(-c2ccc(F)cc2)c1=O [Example 38, N-(4-((2-amino-3-(3-(piperidin-4-yl)prop-1-yn-1-yl)pyridin-4-yl)oxy)-3-fluorophenyl)-1-(2-(dimethylamino)-2-oxoethyl)-3-(4-fluorophenyl)-2,4-dioxo-1,2,3,4-tetrahydropyrimidine-5-carboxamide] | < 10 | < 100 | < 10 |
| Cc1nc(Cn2cc(C(=O)Nc3ccc(Oc4ccnc(N)c4C#CCN4CCOCC4)c(F)c3)c(=O)n(-c3ccc(F)cc3)c2=O)cs1 [Example 40, N-(4-((2-amino-3-(3-morpholinoprop-1-yn-1-yl)pyridin-4-yl)oxy)-3-fluorophenyl)-3-(4-fluorophenyl)-1-((2-methylthiazol-4-yl)methyl)-2,4-dioxo-1,2,3,4-tetrahydropyrimidine-5-carboxamide] | < 1000 | < 100 | < 100 |
| C=CCn1cc(C(=O)Nc2ccc(Oc3ccnc(N)c3C#CCN3CCOCC3)c(F)c2)c(=O)n(CC=C)c1=O [Example 67, 1,3-diallyl-N-(4-(2-amino-3-(3-morpholinoprop-1-ynyl)pyridin-4-yloxy)-3-fluorophenyl)-2,4-dioxo-1,2,3,4-tetrahydropyrimidine-5-carboxamide] | < 100 | < 10 | < 10 |
| Nc1nccc(Oc2ccc(NC(=O)c3c[nH]c(=O)n(-c4ccc(F)cc4)c3=O)cc2F)c1C#CCN1CCOCC1 [Example 51, N-(4-(2-amino-3-(3-morpholinoprop-1-ynyl)pyridin-4-yloxy)-3-fluorophenyl)-3-(4-fluorophenyl)-2,4-dioxo-1,2,3,4-tetrahydropyrimidine-5-carboxamide] | < 100 | < 100 | < 100 |
| CC(C)n1cc(C(=O)Nc2ccc(Oc3ccnc(N)c3C#CC(C)(C)N3CCNCC3)c(F)c2)c(=O)n(-c2ccc(F)cc2)c1=O [Example 19, N-(4-(2-amino-3-(3-methyl-3-(piperazin-1-yl)but-1-ynyl)pyridin-4-yloxy)-3-fluorophenyl)-3-(4-fluorophenyl)-1-isopropyl-2,4-dioxo-1,2,3,4-tetrahydropyridmidine-5-carboxamide] | < 1000 | < 10 | < 10 |
| Cc1noc(C)c1-c1c(Oc2ccc(NC(=O)c3cn(C(C)C)c(=O)n(-c4ccc(F)cc4)c3=O)cc2F)ccnc1N [Example 11] | < 10000 | < 100 | < 10 |
| COCCN1CCC(C#Cc2c(Oc3ccc(NC(=O)c4cn(C(C)C)c(=O)n(-c5ccc(F)cc5)c4=O)cc3F)ccnc2N)CC1 [Example 16] | < 10 | < 10 | < 10 |
| C=CCn1cc(C(=O)Nc2ccc(Oc3ccnc(N)c3C#CCC3CCN(C)CC3)c(F)c2)c(=O)n(CC=C)c1=O [Example 69, 1,3-diallyl-N-(4-(2-amino-3-(3-(1-methylpiperdin-4-yl)prop-1-ynyl)pyridin-4-yloxy)-3-fluorophenyl)-2,4-dioxo-1,2,3,4-tetrahydropyrimidine-5-carboxamide] | < 1000 | < 100 | < 100 |
| CC(C)n1cc(C(=O)Nc2ccc(Oc3ccnc(N)c3C#CC3CCN(C)CC3)c(F)c2)c(=O)n(-c2ccc(F)cc2)c1=O [Example 23, N-(4-(2-amino-3-((1-methylpiperidin-4-yl)ethynyl)pyridin-4-yloxy)-3-fluorophenyl)-3-(4-fluorophenyl)-1-isopropyl-2,4-dioxo-1,2,3,4-tetrahydropyrimidine-5-carboxamide] | < 1000 | < 10 | < 10 |
| CC(C)n1cc(C(=O)Nc2ccc(Oc3ccnc(N)c3C#CCC3CCNCC3)c(F)c2)c(=O)n(-c2ccc(F)cc2)c1=O [Example 27, N-(4-(2-amino-3-(3-(piperidin-4-yl)prop-1-ynyl)pyridin-4-yloxy)-3-fluorophenyl)-3-(4-fluorophenyl)-1-isopropyl-2,4-dioxo-1,2,3,4-tetrahydropyrimidine-5-carboxamide] | < 10 | < 10 | < 10 |
| CC(C)(C#Cc1c(Oc2ccc(NC(=O)c3cn(C4CCOCC4)c(=O)n(-c4ccc(F)cc4)c3=O)cc2F)ccnc1N)N1CCOCC1 [Example 55, N-(4-(2-amino-3-(3-methyl-3-morpholinobut-1-ynyl)pyridin-4-yloxy)-3-fluorophenyl)-3-(4-fluorophenyl)-2,4-dioxo-1-(tetrahydro-2H-pyran-4-yl)-1,2,3,4-tetrahydropyrimidine-5-carboxamide] | < 100 | < 100 | < 100 |
| COCCN1CCN(C(=O)C#Cc2c(Oc3ccc(NC(=O)c4cn(C(C)C)c(=O)n(-c5ccc(F)cc5)c4=O)cc3F)ccnc2N)CC1 [Example 2, N-(4-(2-amino-3-(3-(4-(2-methoxyethyl)piperazin-1-yl)-3-oxoprop-1-ynyl)pyridin-4-yloxy)-3-fluorophenyl)-3-(4-fluorophenyl)-1-isopropyl-2,4-dioxo-1,2,3,4-teterahydropyrimidine-5-carboxamide] | < 10 | < 10 | < 10 |
| CN1CCC(CC#Cc2c(Oc3ccc(NC(=O)c4cn(CC(=O)N(C)C)c(=O)n(-c5ccc(F)cc5)c4=O)cc3F)ccnc2N)CC1 [Example 37, N-(4-((2-amino-3-(3-(1-methylpiperidin-4-yl)prop-1-yn-1-yl)pyridin-4-yl)oxy)-3-fluorophenyl)-1-(2-(dimethylamino)-2-oxoethyl)-3-(4-fluorophenyl)-2,4-dioxo-1,2,3,4-tetrahydropyrimidine-5-carboxamide] | < 10000 | < 100 | < 10 |
